# Source: US20180369203A1, “METHODS OF TREATING CANCER BY ADMINISTERING A MEK INHIBITOR IN COMBINATION WITH A PROTEASOME INHIBITOR” (The Jackson Laboratory, priority 2015, published 2018)
# Assays:
# polyQ79-expressing cells = test: ThT and CR staining of polyQ79-expressing cells (flow cytometry); format: cell-based; conditions: HEK293T; 20 nM AZD6244, 100 nM Bortezomib, or both
# Procedure: FIGS. 5A-Y show MEK and proteasome inhibition provoke protein aggregation and amyloidogenesis. (A-B) WM115 cells treated with 20 nM AZD6244, 100 nM Bortezomib, or both for 24 hr were stained with Lys48-specific ubiquitin antibodies. Arrowheads mark ubiquitin-positive aggregates. Scale bar: 10 μm. Amounts of aggregates per cell were quantitated using ImageJ (median, n≥100, ANOVA). (C-F) Following transfection with polyQ79 plasmids alone or with both polyQ79 and HSF1^S326D plasmids for one day, HEK293T cells were treated with inhibitors as described in (A-B). Cells were either analyzed for aggregate size or stained with 10 μM ThT. (G) Treated tumor cell lines were stained with 10 μM ThT. Geometric means were used to calculate fold changes in ThT fluorescence intensity and the log 2(FC) values were presented as a heat map. (H) HEK293T cells were transfected with LacZ or polyQ79 plasmid. Following treatments, AOs were quantitated by ELISA using A11 antibodies (mean±SD, n=3, ANOVA). (I) Intrinsic AOs were detected in human tumor cell lines (mean±SD, n=3, ANOVA). […] Amyloids were quantitated by ELISA (mean±SD, n=3, Student's t-test). […] AF formation was monitored by ThT binding (mean±SD, n=3, ANOVA). […] Amyloids were quantitated (mean±SD, n=3, Student's t-test). […] Viable cells were quantitated by CellTiter® blue (mean±SD, n=6, Student's t-test). […] Viable cells were quantitated (mean±SD, n=6, ANOVA). […]
# amyloid oligomers (AOs) = test: Amyloid oligomer ELISA (A11) in human tumor, immortalized and primary cells; format: cell-based; conditions: 20 nM AZD6244, 100 nM Bortezomib, or both, 24 hr
# Procedure: FIGS. 5A-Y show MEK and proteasome inhibition provoke protein aggregation and amyloidogenesis. (A-B) WM115 cells treated with 20 nM AZD6244, 100 nM Bortezomib, or both for 24 hr were stained with Lys48-specific ubiquitin antibodies. Arrowheads mark ubiquitin-positive aggregates. Scale bar: 10 μm. Amounts of aggregates per cell were quantitated using ImageJ (median, n≥100, ANOVA). (C-F) Following transfection with polyQ79 plasmids alone or with both polyQ79 and HSF1^S326D plasmids for one day, HEK293T cells were treated with inhibitors as described in (A-B). Cells were either analyzed for aggregate size or stained with 10 μM ThT. (G) Treated tumor cell lines were stained with 10 μM ThT. Geometric means were used to calculate fold changes in ThT fluorescence intensity and the log 2(FC) values were presented as a heat map. (H) HEK293T cells were transfected with LacZ or polyQ79 plasmid. Following treatments, AOs were quantitated by ELISA using A11 antibodies (mean±SD, n=3, ANOVA). (I) Intrinsic AOs were detected in human tumor cell lines (mean±SD, n=3, ANOVA). […] Amyloids were quantitated by ELISA (mean±SD, n=3, Student's t-test). […] AF formation was monitored by ThT binding (mean±SD, n=3, ANOVA). […] Amyloids were quantitated (mean±SD, n=3, Student's t-test). […] Viable cells were quantitated by CellTiter® blue (mean±SD, n=6, Student's t-test). […] Viable cells were quantitated (mean±SD, n=6, ANOVA). Relative changes in viable cells after treatment were calculated by normalizing the values of AZD6244-treated cells against the values of DMSO-treated cells at each time point. (U)-(W) Following treatments with 20 nM AZD6244, 100 nM Bortezomib, or both for 24 hr, AOs were quantitated in primary MEFs and human cells (mean±SD, n=3, ANOVA). (X and Y) Cells were treated with 50 μM Q-VD-OPh overnight and AOs were quantitated (mean±SD, n=3, Student's t-test). […]
# To quantitate soluble amyloid prefibrillar oligomers, 20 μg soluble cellular proteins diluted in PBS were incubated for each well in a 96-well ELISA plate at 4° C. overnight followed by blocking (5% non-fat milk in PBS-T) at RT for 1 hr. […]
smiles,measurement,setting,value
"CC(C)C[C@H](NC(=O)[C@H](Cc1ccccc1)NC(=O)c1cnccn1)B(O)O [Bortezomib, bortezomib]",ThT and CR staining of polyQ79-expressing cells,polyQ79-expressing cells,further intensified
same,AO levels in MCF10A cells,amyloid oligomers (AOs); immortalized human mammary epithelial cells,slight induction
same,AO levels in PHMC,amyloid oligomers (AOs); primary human mammary epithelial cells,no induction
same,AO levels in MCF7 cells,amyloid oligomers (AOs); tumorigenic mammary epithelial cells,marked AO induction
